The text below walks through data of patent US20180312237A1, “BALLAST WATER TREATMENT DEVICE AND BALLAST WATER TREATMENT METHOD” (Kuraray Co., Ltd., priority 2015, published 2018).

Data set [1] can be described thus: TRO concentration of sampled ballast water, DPD colorimeter II. It is filed as physicochemical. The procedure: The ballast water treatment device 1 further includes a concentration measurement unit 41. […] The concentration measurement unit 41 is a sensor for measuring a chlorine concentration of ballast water in the ballast tank 60. Here, a “chlorine concentration (mg/L)” is measured as a total residual oxidant (TRO) concentration of seawater. The TRO concentration can be measured by a measuring instrument using a DPD reagent or the like. […] While in the present embodiment, the concentration measurement unit 41 is attached to the ballast tank 60, the position of the concentration measurement unit 41 is not limited thereto but can be any position that enables a concentration of a sterilizing component of the ballast water in the ballast tank 60 to be measured. For example, the concentration measurement unit 41 may be attached to the circulation pipe 80, or the concentration measurement unit 41 may be attached to the detour pipe 90, or the concentration measurement unit 41 may be attached to the main pipe 2 between the first connection part 2C and the second connection part 2D.
Next, by pouring a solution of TRO 2000 mg/L with dissolved sodium dichloroisocyanurate from a sterilizing component-introducing unit 40 to the seawater after being filtered by the above filter, the seawater was made to include a chlorine component. By stirring the seawater including a chlorine component by a mixer 50, a chlorine component in the seawater was made uniform to become ballast water, and the ballast tank 60 was filled with the ballast water. […]
(§1) With respect to each of the above sampled three kinds of ballast water (the ballast water immediately after filling, the ballast water after a lapse of 10 days after filling, and the ballast water in the ballast tank after the ballast water circulation), a TRO concentration and the number of heterotrophic bacteria (seawater medium) were measured. Additionally, as a comparison, the number of heterotrophic bacteria of the seawater was measured. As the TRO concentration, a value measured by a DPD colorimeter II (product of Hach Company) was adopted.

Another data set has as its system heterotrophic bacteria. Nature of the data set: Number of heterotrophic bacteria (seawater medium) in sampled ballast water. Format: cell-based. How it is done: In the present example, using a ballast water treatment device 100 shown in FIG. 8, 100 m^3 of seawater was supplied to a ballast tank 60 with a capacity of about 200 m^3. Specifically, first, a ballast pump 10 was activated to take in seawater from a pipe port 2A of a main pipe 2 by pump pressure. Microbes or particles in the seawater were removed by allowing the seawater to pass through a filter 20.
Next, by pouring a solution of TRO 2000 mg/L with dissolved sodium dichloroisocyanurate from a sterilizing component-introducing unit 40 to the seawater after being filtered by the above filter, the seawater was made to include a chlorine component. […]
as §1

The mark [2] stands for this setting: ballast water after a lapse of 10 days after filling.

Take `O=c1[n-]c(=O)n(Cl)c(=O)n1Cl.[Na+]` [sodium dichloroisocyanurate]: the figures for the TRO concentration in data set [1] (setting [2]), in data set [1] (ballast water after circulation with additional sterilizing component) and in data set [1] (ballast water immediately after filling) were 0.2 mg/L, 3.2 mg/L and 5.0 mg/L, respectively. In addition, the “The number of bacteria” value with heterotrophic bacteria (setting [2]) is given as 4.6 × 10^5 cfu/cc; in the data set on heterotrophic bacteria (ballast water immediately after filling, filtered seawater with poured TRO 2000 mg/L solution), 7.4 × 10^1 cfu/cc.
